The text below walks through data of ChEMBL document CHEMBL4330075, “Discovery of Novel Quinoline-Chalcone Derivatives as Potent Antitumor Agents with Microtubule Polymerization Inhibitory Activity” (J Med Chem, 2019).

For series [1], the system named is K562. The series can be described thus: Antiproliferative activity against human K562 cells after 72 hrs by MTT assay. The format is functional, cell-based. The conditions noted are these: K562, 72 h. Background: Formazan colour is commonly taken as a measure of viable cells.
For a further series, the system named is KB. The series can be described thus: Antiproliferative activity against human KB cells after 72 hrs by MTT assay. The format is functional, cell-based.
The test system of series [2] is MDA-MB-231. Nature of the series: Antiproliferative activity against human MDA-MB-231 cells after 72 hrs by MTT assay. As to conditions: MDA-MB-231, 72 h. The series is classed as functional, cell-based.
In another series the test system is HCT-8. Nature of the series: Antiproliferative activity against human HCT8 cells after 72 hrs by MTT assay. The series is classed as functional, cell-based. As to conditions: HCT-8, 72 h.
In another series the test system is HepG2. Nature of the series: cells. The conditions noted are these: Homo sapiens, HepG2, 72 h.
The nature of series [3]: Selectivity index, ratio of IC50 for human LO2 cells to IC50 for human HepG2 cells. The format is toxicity. The conditions noted are these: LO2 cells and HepG2 cells, read-out: Ratio IC50.
The subject of a further series is L02. The series can be described thus: Cytotoxicity against human LO2 cells after 72 hrs by MTT assay. The format is cell-based. As to conditions: L02, 72 h.
The test system of series [4] is K562. Nature of the series: Induction of apoptosis in human K562 assessed as chromatin condensation at 5 to 20 nM after 48 hrs by Hoechst 33342 staining-based fluorescence microscopic analysis. The series is classed as functional, cell-based.
In series [5] the test system is K562. Nature of the series: Cell cycle arrest in human K562 cells assessed as decrease in cyclin B1 expression after 48 hrs by Western blot analysis. The series is classed as functional, cell-based. A general note: A western blot detects proteins with antibodies after separation by electrophoresis.
Series [6] relates to Homo sapiens. Nature of the series: Antitumor activity against […] H22 cells xenografted in ICR mouse assessed as reduction in tumor volume administered intravenously once daily for 21 consecutive days and measured every 2 days. The series is classed as functional.
For series [7], the system named is Homo sapiens. The series can be described thus: Antivascular activity against […] H22 cells xenografted in ICR mouse assessed as decrease in tumor microvessel density at 20 mg/kg, iv qd […] every 2 days for 21 days by CD31/hematoxylin staining-based immunohistochemistry assay. The format is functional, organism-based. (Xenograft models place foreign cells or tissue in a host animal.)

Series [8] deals with K562. Nature of the series: Induction of apoptosis in human K562 assessed as upregulation of Bad expression after 48 hrs by Western blot analysis. The series is classed as functional, cell-based.
Another series addresses Tubulin (Homo sapiens) (UniProt P68371+Q9H4B7+P0DPH7+P68366+Q13509+Q71U36+P04350+Q3ZCM7+P07437+P68363+Q9BQE3+Q6PEY2+Q13885+Q9BVA1+Q9BUF5). Nature of the series: Disruption of microtubule network in human K562 cells at 30 nM after 24 hrs by scanning confocal microscopic analysis.
In series [9] the target is T1, Tubulin (Sus scrofa) (UniProt P02554+P02550). The series can be described thus: Inhibition of porcine brain tubulin polymerization measured every 2 mins for 60 mins by spectrophotometric analysis.
Series [10] deals with K562. The series can be described thus: Induction of apoptosis in human K562 assessed as nuclear fragmentation at 5 to 20 nM after 48 hrs by Hoechst 33342 staining-based fluorescence microscopic analysis. The format is functional, cell-based.
The target of series [11] is T1, Tubulin (Sus scrofa). The series can be described thus: Inhibition of [3H]colchicine binding to biotinylated porcine tubulin at 1 uM after 2 hrs by scintillation proximity assay relative to control. The format is protein assay.
For series [12], the system named is K562. The series can be described thus: Induction of ROS generation in human K562 cells after 48 hrs by DCF-DA probe-based flow cytometric analysis. The series is classed as functional, cell-based.
Series [13] deals with HUVEC. The series can be described thus: Inhibition of tube formation in human HUVEC cells at 5 to 20 nM after 6 hrs by tube formation assay. The series is classed as functional, cell-based.
In series [14] the test system is K562. Nature of the series: Induction of apoptosis in human K562 assessed as upregulation of Bax expression after 48 hrs by Western blot analysis. The series is classed as functional, cell-based.
The test system of series [15] is K562. The series can be described thus: Induction of apoptosis in human K562 assessed as down regulation of Bcl-2 expression after 48 hrs by Western blot analysis. The format is functional, cell-based.
Series [16] concerns Homo sapiens. Nature of the series: Antitumor activity against […] H22 cells xenografted in ICR mouse assessed as reduction in tumor weight administered intravenously once daily for 21 consecutive days and measured every 2 days. The series is classed as functional.
Series [17] deals with MDA-MB-231. The series can be described thus: Antimigratory activity against human MDA-MB-231 cells after 48 hrs by transwell assay. The format is functional, cell-based.
The test system of series [18] is K562. The series can be described thus: Induction of apoptosis in human K562 assessed as down regulation of Bcl-xl expression after 48 hrs by Western blot analysis. The format is functional, cell-based.
The target of series [19] is T1, Tubulin (Sus scrofa). Nature of the series: Inhibition of [3H]colchicine binding to biotinylated porcine tubulin at 5 uM after 2 hrs by scintillation proximity assay relative to control. The series is classed as protein assay.
The subject of series [20] is K562. Nature of the series: Cell cycle arrest in human K562 cells assessed as decrease in cdc25c expression after 48 hrs by Western blot analysis. The format is functional, cell-based.
The subject of series [21] is K562. The series can be described thus: Cell cycle arrest in human K562 cells assessed as decrease in cdc2 expression after 48 hrs by Western blot analysis. The series is classed as functional, cell-based.
The test system of series [22] is MDA-MB-231. The series can be described thus: Antiinvasive activity against human MDA-MB-231 cells after 48 hrs by crystal violet staining-based transwell assay. The format is functional, cell-based.
For series [23], the system named is K562. The series can be described thus: Induction of ROS generation in human K562 cells up to 20 nM after 48 hrs in presence of N-acetyl-cycteine by DCF-DA probe-based flow cytometric analysis. The format is functional, cell-based.
In series [24] the test system is Homo sapiens. The series can be described thus: Antitumor activity against […] H22 cells xenografted in ICR mouse assessed as reduction in tumor volume at 20 mg/kg, iv qd for 21 consecutive days and measured every 2 days relative to control. The format is functional, organism-based.
Series [25] has as its system HUVEC. The series can be described thus: Antimigratory activity against human HUVEC cells at 20 nM after 24 hrs by wound healing assay. The format is functional, cell-based.
A short description of series [26]: Toxicity in ICR mouse xenografted with […] cells assessed as decrease in body weight at 10 to 20 mg/kg, iv qd administered for 21 days and measured every 2 days. The format is organism-based. The conditions noted are these: in vivo.
A short description of series [27]: Antitumor activity against […] H22 cells xenografted in ICR mouse assessed as reduction in tumor weight at 20 mg/kg, iv qd for 21 consecutive days and measured every 2 days relative to control. The series is classed as functional. Also on record: scale not given: the % may be the effect or the level left.
A short description of series [28]: Aqueous solubility in pH 7.4 phosphate buffer by HPLC analysis. The format is physicochemical.

Usually IC50 stands for the midpoint of a concentration-inhibition curve. The inhibition is how much of the control response was suppressed. A word on the solubility: it is the dissolved amount per volume that the medium holds.

Converted amounts (≈) assume the structure as drawn. The source made the active and inactive calls. No cut-off for these calls is given here. Bounds are passed on as bounds.

T1 sequence (P02550 whole entry, looked up, the tested form may be a part): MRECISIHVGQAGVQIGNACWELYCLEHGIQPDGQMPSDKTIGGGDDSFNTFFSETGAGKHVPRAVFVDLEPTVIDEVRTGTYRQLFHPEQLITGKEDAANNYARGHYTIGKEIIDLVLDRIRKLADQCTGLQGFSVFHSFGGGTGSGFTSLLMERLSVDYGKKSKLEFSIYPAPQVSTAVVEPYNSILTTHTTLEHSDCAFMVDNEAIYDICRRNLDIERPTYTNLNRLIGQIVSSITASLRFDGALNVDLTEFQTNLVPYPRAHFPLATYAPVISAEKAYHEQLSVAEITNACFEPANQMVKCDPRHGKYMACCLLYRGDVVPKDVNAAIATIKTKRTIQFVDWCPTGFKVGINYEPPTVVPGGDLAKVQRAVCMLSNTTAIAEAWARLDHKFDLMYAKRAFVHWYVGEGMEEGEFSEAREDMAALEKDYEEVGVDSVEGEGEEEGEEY
T1 sequence (P02554 whole entry, looked up, the tested form may be a part): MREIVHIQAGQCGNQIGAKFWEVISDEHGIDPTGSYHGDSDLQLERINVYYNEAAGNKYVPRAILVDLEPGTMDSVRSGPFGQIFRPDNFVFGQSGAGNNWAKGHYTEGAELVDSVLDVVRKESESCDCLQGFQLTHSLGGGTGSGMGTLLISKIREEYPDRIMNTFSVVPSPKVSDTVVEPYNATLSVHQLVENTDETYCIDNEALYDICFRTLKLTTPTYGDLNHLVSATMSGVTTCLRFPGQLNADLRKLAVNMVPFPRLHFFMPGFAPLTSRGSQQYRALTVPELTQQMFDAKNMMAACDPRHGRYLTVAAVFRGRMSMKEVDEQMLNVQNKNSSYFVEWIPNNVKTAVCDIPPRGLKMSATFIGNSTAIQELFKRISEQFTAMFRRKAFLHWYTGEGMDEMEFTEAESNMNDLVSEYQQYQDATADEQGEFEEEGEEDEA

With `COc1ccc(CNc2cc(C(=O)/C(C)=C/c3ccc(OC)c(O)c3)c3ccccc3n2)cc1`, half-maximal inhibition in the series with K562 [1] (IC50) was put at 330 nM.
Turning to `COc1ccc(/C=C/C(=O)c2cc(C)nc3ccccc23)cc1O`, the IC50 with K562 [1] came out at 127 nM; in the series with KB, 123 nM; in the series with MDA-MB-231 [2] it was 112 nM; in the series with HCT-8, 137 nM; in the series on HepG2 it was 121 nM.
Compound `COc1ccc2c(/C=C(\C)C(=O)c3cc(C)nc4ccccc34)c[nH]c2c1` showed an IC50 with K562 [1] of more than 1000 nM.
The same measure, in the same setting: then `COc1ccc(/C=C(\C)C(=O)c2cc(NC3CC3)nc3ccccc23)cc1O`, with 58 nM.
Same read-out and setting: with `C/C(=C\c1cccc2[nH]ccc12)C(=O)c1cc(C)nc2ccccc12` the figure was more than 1000 nM.
Regarding `CNc1cc(C(=O)/C(C)=C/c2ccc(OC)c(O)c2)c2ccccc2n1`, the IC50 with K562 [1] came to 18 nM; with L02, 1090 nM; in the series with KB, 29 nM; with MDA-MB-231 [2] it was 43 nM; in the series with HCT-8 it was 40 nM; in the series with HepG2, 27 nM. Further, the selectivity ratio in series [3] worked out at 40.2.
On to `COc1ccc(/C=C(\C)C(=O)c2cc(C)nc3ccccc23)cc1O`, for which the outcome with K562 [4], in the series with Homo sapiens [7], at Tubulin (Homo sapiens), with K562 [10], with Homo sapiens [24] and in the series on HUVEC [25] was Active. The Activity result in the series with K562 [5], in the series on Homo sapiens [6], in the series on K562 [8], with K562 [12], with K562 [14] and in the series on K562 [15] was “Dose-dependent effect” each time. Besides, the Activity result with Homo sapiens [16], in the series on MDA-MB-231 [17], in the series on K562 [18], in the series with K562 [20], in the series with K562 [21] and in the series with MDA-MB-231 [22] was “Dose-dependent effect” throughout. In addition, the inhibition result is “Dose-dependent effect” on Tubulin (Sus scrofa) [9], 79.4% at Tubulin (Sus scrofa) [11] and 92.7% at Tubulin (Sus scrofa) [19]. Moreover, in the series on HUVEC [13], the inhibition result was “Active”. Further, in the series on K562 [23], the result was inactive.
On to `COc1cc(C(=O)/C(C)=C/c2ccc(OC)c(O)c2)c2ccccc2n1`, for which the IC50 was 26 nM with K562 [1]; 914 nM in the series on L02; 52 nM in the series on KB; 52 nM with MDA-MB-231 [2]; 61 nM in the series with HCT-8; 38 nM in the series with HepG2. Moreover, the selectivity ratio in [3] came to 24.1.
As to `COc1ccc(/C=C(\C)C(=O)c2cc(C)nc3ccccc23)cc1O.Cl`, the Activity result in series [26] is recorded as “Non-Toxic”; in series [27], 68.9%. For the same compound, the solubility in series [28] is more than 1000 µg/mL.
For `COc1ccc(/C=C(\C)C(=O)c2cc(Cl)nc3ccccc23)cc1O`, the IC50 in the series with K562 [1] worked out at 53 nM; in the series with KB it was 237 nM; with MDA-MB-231 [2], 183 nM; in the series with HCT-8, 227 nM; in the series on HepG2 it was 187 nM.
The compound `COc1ccc(/C=C(\C)C(=O)c2cc(N3CCOCC3)nc3ccccc23)cc1O` returned an IC50 in the series with K562 [1] of 153 nM.
In the case of `CCNc1cc(C(=O)/C(C)=C/c2ccc(OC)c(O)c2)c2ccccc2n1`, 40 nM corresponded to half-maximal inhibition with K562 [1] (IC50).
As to `C/C(=C\c1ccc2[nH]ccc2c1)C(=O)c1cc(C)nc2ccccc12`, the IC50 is 346 nM in the series on K562 [1]; 429 nM in the series on KB; 425 nM with MDA-MB-231 [2]; 421 nM in the series with HCT-8; 226 nM in the series with HepG2.
`CCOC(=O)c1cc(C(=O)/C(C)=C/c2ccc(OC)c(O)c2)c2ccccc2n1`: in the series on K562 [1], the IC50 came out at 120 nM.
Take `COc1ccc(/C=C(\C)C(=O)c2cc(=O)[nH]c3ccccc23)cc1O`: the IC50 in the series with K562 [1] was determined as 1240 nM.
Regarding `COc1ccc(/C=C/C(=O)c2cc(OC)c(OC)c(OC)c2)cc1O`, the figures for the IC50 with KB, in the series with MDA-MB-231 [2] and with HCT-8 were 108 nM, 102 nM and 104 nM, respectively. The solubility in series [28] was 3.2 µg/mL (≈ 9.29 µM).
As for `Cc1cc(C(=O)/C=C/c2ccc3[nH]ccc3c2)c2ccccc2n1`, in the series on K562 [1], the IC50 is more than 1000 nM.
